Experimental data taken from PubChem BioAssay AID248 (DTP/NCI, 2004).
“And” between values parts separate entries of the source, which are not always exact repeats. Equal values may be shown once. Inconclusive results and toxic doses are left out. Rule as the data show it: active = T/C of 150% or more; inactive = T/C below 125%.

Test system: L1210 leukemia ip in BDF1 mice, survival T/C
Assay: NCI In Vivo Anticancer Drug Screen. Data for tumor model L1210 Leukemia (intraperitoneal) in B6D2F1 (BDF1) mice
Conditions: endpoint: mean survival time, higher = longer survival
Summary of the method: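 In this screen, tumor-bearing mice given compound are compared to those given vehicle, and their survival values are reported as a treated-to-control quotient.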

[1] = dose: 100.0 mg/kg/injection, schedule: Q04DX003 (ip), vehicle: Klucel (hydroxypropylcellulose) (HPC)
[2] = dose: 200.0 mg/kg/injection, schedule: Q04DX003 (ip), vehicle: Klucel (hydroxypropylcellulose) (HPC)
[3] = dose: 100.0 mg/kg/injection, schedule: Q01DX001 (ip), vehicle: Klucel (hydroxypropylcellulose) (HPC)
[4] = dose: 200.0 mg/kg/injection, schedule: Q01DX001 (ip), vehicle: Klucel (hydroxypropylcellulose) (HPC)
[5] = dose: 400.0 mg/kg/injection, schedule: Q01DX001 (ip), vehicle: Klucel (hydroxypropylcellulose) (HPC)
[6] = dose: 100.0 mg/kg/injection, schedule: Q01DX009 (ip), vehicle: Klucel (hydroxypropylcellulose) (HPC)
[7] = dose: 100.0 mg/kg/injection, schedule: Q04DX002 (ip), vehicle: Klucel (hydroxypropylcellulose) (HPC)
[8] = dose: 200.0 mg/kg/injection, schedule: Q01DX009 (ip), vehicle: Klucel (hydroxypropylcellulose) (HPC)
[9] = dose: 200.0 mg/kg/injection, schedule: Q04DX002 (ip), vehicle: Klucel (hydroxypropylcellulose) (HPC)

Measured: T/C

N#Cc1cnn(C(N)=S)c1N
inactive: dose: 25.0 mg/kg/injection, schedule: Q01DX009 (ip), vehicle: saline 88 % of control | dose: 25.0 mg/kg/injection, schedule: Q04DX003 (ip), vehicle: saline 94 % of control | dose: 50.0 mg/kg/injection, schedule: Q01DX009 (ip), vehicle: saline 97 % of control | dose: 50.0 mg/kg/injection, schedule: Q04DX003 (ip), vehicle: saline 110 % of control | dose: 100.0 mg/kg/injection, schedule: Q04DX003 (ip), vehicle: saline 98 % of control

COc1cc2c(c(OC)c1OC)-c1ccc(OC)c(=O)cc1[C@@H](NC(=O)CCl)CC2
inactive: dose: 0.06 mg/kg/injection, schedule: Q01DX009 (ip), vehicle: Klucel (hydroxypropylcellulose) (HPC) 108 % of control | dose: 0.12 mg/kg/injection, schedule: Q01DX009 (ip), vehicle: Klucel (hydroxypropylcellulose) (HPC) 110 % of control | dose: 0.14 mg/kg/injection, schedule: Q01DX009 (ip), vehicle: saline 115 % of control | dose: 0.18 mg/kg/injection, schedule: Q04DX003 (ip), vehicle: Klucel (hydroxypropylcellulose) (HPC) 102 % of control | dose: 0.23 mg/kg/injection, schedule: Q01DX009 (ip), vehicle: saline 121 % of control | dose: 0.25 mg/kg/injection, schedule: Q01DX009 (ip), vehicle: Klucel (hydroxypropylcellulose) (HPC) 118 % of control and 124 % of control | dose: 0.37 mg/kg/injection, schedule: Q04DX003 (ip), vehicle: Klucel (hydroxypropylcellulose) (HPC) 119 % of control | dose: 0.75 mg/kg/injection, schedule: Q04DX003 (ip), vehicle: Klucel (hydroxypropylcellulose) (HPC) 120 % of control

CCCC/C(=N\OP(=O)(OCC)OCC)c1ccccc1
inactive: dose: 75.0 mg/kg/injection, schedule: Q01DX001 (ip), vehicle: saline 101 % of control | dose: 150.0 mg/kg/injection, schedule: Q01DX001 (ip), vehicle: saline 107 % of control | dose: 300.0 mg/kg/injection, schedule: Q01DX001 (ip), vehicle: saline 91 % of control

COc1cc2c(cc1OC)C1(NCC2)C(=O)Nc2c(Cl)cccc21 (stereo not given)
inactive: dose: 30.0 mg/kg/injection, schedule: Q04DX002 (ip), vehicle: saline 124 % of control | dose: 60.0 mg/kg/injection, schedule: Q04DX002 (ip), vehicle: saline 113 % of control | dose: 120.0 mg/kg/injection, schedule: Q04DX002 (ip), vehicle: saline 117 % of control

COC1OCN(C)CC1(C)C (stereo not given)
inactive: dose: 75.0 mg/kg/injection, schedule: Q01DX009 (ip), vehicle: saline 87 % of control | [1] 105 % of control | dose: 150.0 mg/kg/injection, schedule: Q01DX009 (ip), vehicle: saline 95 % of control | [2] 102 % of control | dose: 300.0 mg/kg/injection, schedule: Q01DX009 (ip), vehicle: saline 99 % of control

CC1(C)N=C(N)N=C(N)N1c1ccc(C(=O)Nc2cccc(S(=O)(=O)F)c2)cc1
inactive: dose: 0.8 mg/kg/injection, schedule: Q01DX009 (ip), vehicle: saline 97 % of control | dose: 4.0 mg/kg/injection, schedule: Q01DX009 (ip), vehicle: saline 101 % of control | dose: 20.0 mg/kg/injection, schedule: Q01DX009 (ip), vehicle: saline 97 % of control | dose: 100.0 mg/kg/injection, schedule: Q01DX009 (ip), vehicle: saline 100 % of control | dose: 500.0 mg/kg/injection, schedule: Q01DX009 (ip), vehicle: saline 92 % of control

Cc1nc2ccccc2nc1CI
inactive: dose: 3.12 mg/kg/injection, schedule: Q01DX009 (ip), vehicle: acetone 100 % of control | dose: 6.25 mg/kg/injection, schedule: Q01DX009 (ip), vehicle: acetone 104 % of control | dose: 12.5 mg/kg/injection, schedule: Q01DX009 (ip), vehicle: acetone 100 % of control | dose: 12.5 mg/kg/injection, schedule: Q04DX003 (ip), vehicle: acetone 113 % of control | dose: 18.0 mg/kg/injection, schedule: Q01DX009 (ip), vehicle: saline with Tween-80 92 % of control

CCCNS(=O)(=O)c1ccc(C(N)=S)cc1
inactive: [3] 103 % of control | [4] 108 % of control | [5] 98 % of control

CCCCCCCCCCP(=O)(CCCCCCCCCC)C(O)C(Cl)(Cl)Cl (stereo not given)
inactive: dose: 100.0 mg/kg/injection, schedule: Q01DX001 (ip), vehicle: saline with Tween-80 91 % of control | dose: 200.0 mg/kg/injection, schedule: Q01DX001 (ip), vehicle: saline with Tween-80 93 % of control | dose: 400.0 mg/kg/injection, schedule: Q01DX001 (ip), vehicle: saline with Tween-80 94 % of control

NC(=O)COc1ccc(Cl)cc1Cl
inactive: [6] 111 % of control | [7] 112 % of control | [8] 101 % of control | [9] 100 % of control

Nc1cc(F)c([N+](=O)[O-])cc1[N+](=O)[O-]
inactive: dose: 8.0 mg/kg/injection, schedule: Q01DX015 (ip), vehicle: carboxymethylcellulose (CMC) 89 % of control | dose: 16.0 mg/kg/injection, schedule: Q01DX015 (ip), vehicle: carboxymethylcellulose (CMC) 91 % of control | dose: 32.0 mg/kg/injection, schedule: Q01DX015 (ip), vehicle: carboxymethylcellulose (CMC) 102 % of control

COc1ccc(/C=C(\C(=O)O)c2cccc3ccccc23)cc1
inactive: [6] 91 % of control | [7] 100 % of control | [8] 107 % of control | [9] 86 % of control | dose: 400.0 mg/kg/injection, schedule: Q04DX002 (ip), vehicle: Klucel (hydroxypropylcellulose) (HPC) 104 % of control

COC1C(COC(=O)c2ccccc2)OC2OC(C)(C)OC21 (stereo not given)
inactive: dose: 50.0 mg/kg/injection, schedule: Q01DX001 (ip), vehicle: carboxymethylcellulose (CMC) 98 % of control | dose: 100.0 mg/kg/injection, schedule: Q01DX001 (ip), vehicle: carboxymethylcellulose (CMC) 98 % of control | dose: 200.0 mg/kg/injection, schedule: Q01DX001 (ip), vehicle: carboxymethylcellulose (CMC) 93 % of control | dose: 400.0 mg/kg/injection, schedule: Q01DX001 (ip), vehicle: carboxymethylcellulose (CMC) 109 % of control

CO[Si](C)(C)C
inactive: dose: 100.0 mg/kg/injection, schedule: Q01DX001 (ip), vehicle: saline 98 % of control | dose: 200.0 mg/kg/injection, schedule: Q01DX001 (ip), vehicle: saline 98 % of control | dose: 400.0 mg/kg/injection, schedule: Q01DX001 (ip), vehicle: saline 100 % of control

CN(C)c1ccc(C2SCSCS2)cc1
inactive: [1] 97 % of control | [2] 101 % of control | dose: 400.0 mg/kg/injection, schedule: Q04DX003 (ip), vehicle: Klucel (hydroxypropylcellulose) (HPC) 95 % of control

Cc1ccc(C(=O)C=Nc2ccc(Br)cc2)cc1
inactive: [3] 104 % of control | [4] 95 % of control | [5] 112 % of control

CCOC(=O)c1ccc(NCc2cnc(N)c(C#N)n2)cc1
inactive: dose: 100.0 mg/kg/injection, schedule: Q04DX003 (ip), vehicle: saline with Tween-80 91 % of control | dose: 200.0 mg/kg/injection, schedule: Q04DX003 (ip), vehicle: saline with Tween-80 95 % of control | dose: 400.0 mg/kg/injection, schedule: Q04DX003 (ip), vehicle: saline with Tween-80 95 % of control

CC(C)(C)NP(=O)(NC(C)(C)C)c1ccc([N+](=O)[O-])cc1
inactive: dose: 100.0 mg/kg/injection, schedule: Q04DX003 (ip), vehicle: acetone 100 % of control | dose: 400.0 mg/kg/injection, schedule: Q04DX003 (ip), vehicle: acetone 93 % of control
